# Laboratory results taken from publication PMC9098912, “Molecular basis for inhibiting human glucose transporters by exofacial inhibitors” (Nature Communications, 2022).
# Numbering of substitutions follows the chain as printed.
# Experiments:
# Assay in all cases: MST binding assay, GLUT3 variant
# Conditions in all cases: read-out: Kd of SA47
# GLUT3 E378A = target: T1, GLUT3 E378A (Homo sapiens, UniProt P11169, E378A/N43T)
# T1 construct: His10 (N); made in house; host or cells: Sf9 insect cells (baculovirus)
# T1 sequence (P11169 1-496 N43T/E378A): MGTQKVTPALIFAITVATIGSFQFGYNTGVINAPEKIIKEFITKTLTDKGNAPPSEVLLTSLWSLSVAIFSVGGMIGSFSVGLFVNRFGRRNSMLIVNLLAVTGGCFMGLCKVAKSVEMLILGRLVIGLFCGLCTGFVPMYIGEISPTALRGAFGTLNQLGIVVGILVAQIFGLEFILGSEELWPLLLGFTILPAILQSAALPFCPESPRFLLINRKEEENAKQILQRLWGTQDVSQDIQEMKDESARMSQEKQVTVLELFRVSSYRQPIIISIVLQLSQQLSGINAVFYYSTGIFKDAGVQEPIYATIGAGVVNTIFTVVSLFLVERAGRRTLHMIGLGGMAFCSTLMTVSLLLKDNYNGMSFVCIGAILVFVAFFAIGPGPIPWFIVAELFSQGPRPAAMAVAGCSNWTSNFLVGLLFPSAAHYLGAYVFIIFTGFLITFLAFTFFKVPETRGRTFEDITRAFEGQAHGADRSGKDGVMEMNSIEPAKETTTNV
# Description: (§1) All mutants were generated by standard PCR-based strategy.
# (§2) Inhibitors with serial dilutions were mixed with indicated protein. […] MST analyses were conducted on a Monolith NT. […] The MST data was analyzed by Monolith NT.115.
# GLUT3 N315A = target: T2, GLUT3 N315A (Homo sapiens, UniProt P11169, N315A/N43T)
# T2 construct: His10 (N); made in house; host or cells: Sf9 insect cells (baculovirus)
# T2 sequence (P11169 1-496 N43T/N315A): T1 sequence (P11169 1-496 N43T/E378A) with N315A, A378E
# Description: as §1, §2
# GLUT3 N32A = target: T3, GLUT3 N32A (Homo sapiens, UniProt P11169, N32A/N43T)
# T3 construct: His10 (N); made in house; host or cells: Sf9 insect cells (baculovirus)
# T3 sequence (P11169 1-496 N32A/N43T): T1 sequence (P11169 1-496 N43T/E378A) with N32A, A378E
# Description: as §1, §2
# GLUT3 N413A = target: T4, GLUT3 N413A (Homo sapiens, UniProt P11169, N413A/N43T)
# T4 construct: His10 (N); made in house; host or cells: Sf9 insect cells (baculovirus)
# T4 sequence (P11169 1-496 N43T/N413A): T1 sequence (P11169 1-496 N43T/E378A) with A378E, N413A
# Description: as §1, §2
# GLUT3 Q159A = target: T5, GLUT3 Q159A (Homo sapiens, UniProt P11169, N43T/Q159A)
# T5 construct: His10 (N); made in house; host or cells: Sf9 insect cells (baculovirus)
# T5 sequence (P11169 1-496 N43T/Q159A): T1 sequence (P11169 1-496 N43T/E378A) with Q159A, A378E
# Description: as §1, §2
structure (smiles),measurement,setting,value
COC(=O)CCNCc1ccccc1-n1ncc2c(N3CCN(c4cc(F)ccc4OC)CC3)ncnc21 [SA47],Kd,GLUT3 E378A,1100 ± 100 nM
same,Kd,GLUT3 N315A,9500 ± 2200 nM
same,Kd,GLUT3 N32A,941 ± 213 nM
same,Kd,GLUT3 N413A,810 ± 214 nM
same,Kd,GLUT3 Q159A,4100 ± 800 nM
